Assay results: US20070082920A1, “NAD+-dependent DNA ligase inhibitors” (priority 2005, published 2007)

Assays:
[1] = tested on: Staphylococcus aureus ATCC 29213; assay: MIC, broth microdilution (CLSI), S. aureus; format: cell-based; settings: lowest concentration inhibiting visual growth
Procedure: (§1) The compounds of Formulas 1-VIII were evaluated as inhibitors of NAD+-dependent DNA ligase inhibitors. Their antimicrobial activity was evaluated against bacteria using the broth microdilution method as described by Clinical Laboratory Standards Institute (formerly NCCLS). Activity was assessed against the following bacterial strains: Staphylococcus aureus ATCC 29213, Streptococcus pneumoniae ATCC 49619, Escherichia coli ATCC 25922, E. coli CGSC 5633 (ToIC mutant), Haemophilus influenzae ATCC 49766, Streptococcus pyogenes ATCC 19615, Moraxella catterhalis ATCC 25238, Enterococcus faecalis ATCC 29212. The lowest concentration of compound which inhibited visual growth of each bacterium, the minimum inhibitory concentration (MIC), was determined.

[2] = tested on: Streptococcus pneumoniae ATCC 49619; assay: MIC, broth microdilution (CLSI), S. pneumoniae; format: cell-based
Procedure: as §1

[3] = tested on: Escherichia coli ATCC 25922; assay: MIC, broth microdilution (CLSI), E. coli ATCC 25922; format: cell-based
Procedure: as §1

[4] = tested on: E. coli CGSC 5633 (ToIC mutant); assay: MIC, broth microdilution (CLSI), E. coli CGSC 5633; format: cell-based, Escherichia coli; design: unit not given beside the values
Procedure: as §1

[5] = tested on: Enterococcus faecalis ATCC 29212; assay: MIC, broth microdilution (CLSI), E. faecalis; format: cell-based; design: unit not given here
Procedure: as §1

[6] = tested on: Haemophilus influenzae ATCC 49766; assay: MIC, broth microdilution (CLSI), H. influenzae; format: cell-based; design: unit not given beside the values
Procedure: as §1

[7] = tested on: Moraxella catterhalis ATCC 25238; assay: MIC, broth microdilution (CLSI), M. catarrhalis; format: cell-based
Procedure: as §1

[8] = tested on: Streptococcus pyogenes ATCC 19615; assay: MIC, broth microdilution (CLSI), S. pyogenes; format: cell-based
Procedure: as §1

[9] = Acute toxicity, Alamar blue cell viability, HepG2; format: cell-based; settings: human
Procedure: (§2) Acute toxicity was assessed against two mammalian cell lines, HepG2 (human hepatocyte) and NIH 3T3 (mouse fibroblast). Cell viability was measured by an in vitro assay using Alamar blue. The concentration of compound which inhibited 50% of the cell growth (LC50) was determined.

[10] = Acute toxicity, Alamar blue cell viability, NIH 3T3; format: cell-based; settings: mouse
Procedure: as §2

[11] = molecular target: DNA ligase enzyme (NAD+-dependent DNA ligase) (Streptococcus pneumoniae serotype 4, UniProt Q97QT2); assay: DNA ligase AMP release assay (luciferase readout); format: biochemical; settings: purified enzyme from S. pneumoniae
Procedure: Activity against DNA ligase enzyme was measured using purified enzyme from S. pneumoniae. An AMP release assay was used to assess activity of compounds against the enzyme. AMP, released as a result of the ligation of oligonucleotides, is converted to ATP, which is then measured using luciferase enzyme. The concentration of compound which inhibited 50% of the ligation activity of the enzyme (IC50) was determined.

[12] = tested on: NAD+-dependent DNA ligase; settings: specific DHFR inhibitors; background; cited from earlier work

DNA ligase enzyme (NAD+-dependent DNA ligase), sequence (Q97QT2 whole entry): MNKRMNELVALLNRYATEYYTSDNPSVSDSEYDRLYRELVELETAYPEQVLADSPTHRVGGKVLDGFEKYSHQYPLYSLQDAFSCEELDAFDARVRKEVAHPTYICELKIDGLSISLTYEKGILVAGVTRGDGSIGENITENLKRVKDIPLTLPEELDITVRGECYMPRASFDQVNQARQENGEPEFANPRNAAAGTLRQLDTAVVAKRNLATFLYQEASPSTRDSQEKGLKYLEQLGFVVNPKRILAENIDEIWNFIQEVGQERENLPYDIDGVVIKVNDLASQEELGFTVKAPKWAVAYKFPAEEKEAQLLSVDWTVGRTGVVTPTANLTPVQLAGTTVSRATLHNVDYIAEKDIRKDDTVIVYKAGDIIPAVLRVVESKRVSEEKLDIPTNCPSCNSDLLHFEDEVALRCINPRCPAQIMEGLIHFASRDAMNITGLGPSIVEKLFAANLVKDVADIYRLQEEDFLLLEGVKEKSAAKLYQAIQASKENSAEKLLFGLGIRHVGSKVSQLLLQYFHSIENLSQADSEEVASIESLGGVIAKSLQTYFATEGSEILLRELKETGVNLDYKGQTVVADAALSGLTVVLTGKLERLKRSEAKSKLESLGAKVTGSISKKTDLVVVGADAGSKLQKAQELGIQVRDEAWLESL

Cc1cc(N2Cc3ccccc3C2)nc2nc(N)nc(N)c12 [V-b]
MIC S. aureus ATCC 29213 [1]: 16 | MIC S. pneumoniae [2]: 8 | MIC E. coli ATCC 25922 [3]: 64 | MIC E. coli CGSC 5633 [4]: 2 | MIC E. faecalis [5]: 8 | MIC H. influenzae [6]: >128 | MIC M. catarrhalis [7]: 32 | MIC S. pyogenes [8]: 16 | CC50 [9]: 8.85 µM | CC50 [10]: 8.09 µM | IC50 [11]: 7.35 µM

Cc1cc(N(C)C2CCCCC2)nc2nc(N)nc(N)c12 [IV-d]
MIC S. aureus ATCC 29213 [1]: 64 | MIC S. pneumoniae [2]: 8 | MIC E. coli ATCC 25922 [3]: 64 | MIC E. coli CGSC 5633 [4]: 0.125 | MIC E. faecalis [5]: 2 | MIC H. influenzae [6]: 51 | MIC M. catarrhalis [7]: 16 | MIC S. pyogenes [8]: 32 | CC50 [9]: 23.4 µM | CC50 [10]: 12.8 µM | IC50 [11]: 15.2 µM

CN(Cc1cnc2nc(N)nc(N)c2n1)c1ccc(C(=O)N[C@@H](CCC(=O)O)C(=O)O)cc1 [methotrexate]
inhibition of NAD+-dependent DNA ligase (in words) [12]: not to inhibit

COc1cc(Cc2cnc(N)nc2N)cc(OC)c1OC [trimethoprim]
inhibition of NAD+-dependent DNA ligase (in words) [12]: not to inhibit

Cc1c(Cc2ccccc2)c(NCc2ccc(F)c(F)c2)nc2nc(N)nc(N)c12 [II-b]
MIC S. aureus ATCC 29213 [1]: 4 | MIC S. pneumoniae [2]: 4 | MIC E. coli ATCC 25922 [3]: 32 | MIC E. coli CGSC 5633 [4]: 0.125 | MIC E. faecalis [5]: 1 | MIC H. influenzae [6]: 64 | MIC M. catarrhalis [7]: 2 | MIC S. pyogenes [8]: 1 | CC50 [9]: 14 µM | CC50 [10]: 2.94 µM | IC50 [11]: 12.6 µM

Nc1nc(N)c2c3c(c(NCc4ccc(F)c(F)c4)nc2n1)CCCC3 [VII-a]
MIC S. aureus ATCC 29213 [1]: 16 | MIC S. pneumoniae [2]: 4 | MIC E. coli ATCC 25922 [3]: >128 | MIC E. coli CGSC 5633 [4]: 0.5 | MIC E. faecalis [5]: 8 | MIC H. influenzae [6]: 64 | MIC M. catarrhalis [7]: 8 | MIC S. pyogenes [8]: 32 | CC50 [9]: 19.2 µM | CC50 [10]: 1.24 µM | IC50 [11]: 17.3 µM
